The results in this text go back to ChEMBL document CHEMBL1821651, “Structure-activity relationships of phosphoinositide 3-kinase (PI3K)/mammalian target of rapamycin (mTOR) dual inhibitors: investigations of various 6,5-heterocycles to improve metabolic stability” (J Med Chem, 2011).

Data set [1] is filed under the species Canis familiaris. The data set can be described thus: Liver blood flow in Beagle dog. Format: ADME, organism-based, Canis lupus familiaris.
The species named for data set [2] is Rattus norvegicus. Nature of the data set: Liver blood flow in Sprague-Dawley rat. Type of data set: ADME, organism-based.
Data set [3] is described as follows: Clearance in Beagle dog liver microsomes. Type of data set: ADME, Canis lupus familiaris, Microsome. (Microsomes from liver hold many membrane-bound enzymes, among them those of drug oxidation.)
A short description of data set [4]: in vitro. The conditions noted are these: human, liver microsomes.
Description: Clearance in human liver microsomes
Data set [5] can be described thus: Clearance in mouse liver microsomes. Type of data set: ADME, Microsome.
The species entered for data set [6] is Mus musculus. The data set can be described thus: Liver blood flow in mouse. Format: ADME, organism-based.
A short description of data set [7]: in vitro. The settings on record: Sprague-Dawley, rat, liver microsomes.
Description: Clearance in Sprague-Dawley rat liver microsomes
A short description of data set [8]: Clearance in cynomolgus monkey liver microsomes. Format: ADME, Macaca fascicularis, Microsome.
The target of data set [9] is Serine/threonine-protein kinase mTOR (Homo sapiens, UniProt P42345). The data set can be described thus: Inhibition of recombinant N-terminal GST-tagged mTOR-mediated 4E-BP1 phosphorylation after 60 mins by TR-FRET assay. For orientation: Time-resolved FRET reads energy transfer from a long-lived donor to a nearby acceptor.
The nature of data set [10]: Antitumor activity against human U87MG tumor xenografted in po dosed nu/nu CD1 mouse assessed as tumor growth delay. The settings on record: U-87 MG. Format: functional, U-87MG ATCC. A general note: Xenograft models place foreign cells or tissue in a host animal.
The nature of data set [11]: Antitumor activity against human U87MG tumor xenografted in nu/nu CD1 mouse assessed as inhibition of tumor growth at 1 mg/kg, po qd. Type of data set: functional, U-87MG ATCC. The conditions noted are these: U-87 MG, read-out: GI.
Data set [12] addresses Phosphatidylinositol 4,5-bisphosphate 3-kinase catalytic subunit beta isoform (Homo sapiens, UniProt P42338). The data set can be described thus: Inhibition of human N-terminal His-tagged PI3Kbeta expressed in insect Sf9 cells using PI(4,5)P2 as substrate after 20 mins by alphascreen assay in presence of 20 uM ATP.
Data set [13] can be described thus: Elimination half life in iv dosed Sprague-Dawley rat. Format: ADME, organism-based. The conditions noted are these: in vivo, read-out: beta t1/2 (converted).
The nature of data set [14]: AUC (0 to 24 hrs) in plasma of nu/nu CD1 mouse xenografted with human U87MG cells at ED50. Type of data set: ADME, organism-based, U-87MG ATCC. On the set-up: time < 24 hr.
Data set [15] in a line: Oral bioavailability in Sprague-Dawley rat at 2 mg/kg. Type of data set: ADME, organism-based. The conditions noted are these: in vivo.
For data set [16], the target named is Phosphatidylinositol 4,5-bisphosphate 3-kinase catalytic subunit alpha isoform (Homo sapiens, UniProt P42336). The data set can be described thus: Inhibition of human PI3Kalpha using PI(4,5)P2 as substrate after 20 mins by alphascreen assay in presence of 20 uM ATP.
Data set [17] is described as follows: AUC in Sprague-Dawley rat at 2 mg/kg, po. Format: ADME, organism-based. The arrangement: dose 2 mg/kg, route oral. The settings on record: plasma.
Data set [18] in a line: Ratio of drug level in tumor to plasma in nu/nu CD1 mouse xenografted with U87MG tumor at 1 mg/kg, po administered as single dose measured upto 8 hrs. Type of data set: ADME, organism-based. On the set-up: dose 1 mg/kg, route oral. The conditions noted are these: tumor and plasma.
For data set [19], the target named is Phosphatidylinositol 4,5-bisphosphate 3-kinase catalytic subunit gamma isoform (Homo sapiens, UniProt P48736). The data set can be described thus: Inhibition of human N-terminal His-tagged PI3Kgamma expressed in insect Sf9 cells using PI(4,5)P2 as substrate after 20 mins by alphascreen assay in presence of 8 uM ATP.
The nature of data set [20]: Clearance in iv dosed Sprague-Dawley rat. Type of data set: ADME, organism-based. The conditions noted are these: in vivo.
A short description of data set [21]: Volume of distribution in iv dosed Sprague-Dawley rat. The conditions noted are these: in vivo. Format: ADME, organism-based.
Data set [22] relates to Mus musculus. Nature of the data set: In vivo inhibition of PI3Kalpha-mediated Akt phosphorylation in nu/nu CD1 mouse xenografted with U87MG tumor. Format: functional, organism-based. The conditions noted are these: CD1, U-87 MG.
Data set [23] has as its system Mus musculus. The data set can be described thus: Toxicity in nu/nu CD1 mouse xenografted with human U87MG cells assessed as weight loss at 3 mg/kg, po relative to control. Type of data set: organism-based, U-87MG ATCC. The settings on record: in vivo. The arrangement: dose 3 mg/kg, route oral.
In data set [24] the test system is Plasma. The data set can be described thus: Plasma EC50 for pAkt inhibition in nu/nu CD1 mouse xenografted with U87 MG tumor.
Data set [25] concerns Rattus norvegicus. Nature of the data set: Liver blood flow in iv dosed Sprague-Dawley rat. Format: ADME, organism-based. The settings on record: in vivo.
The nature of data set [26]: Ratio of drug level in tumor to plasma in nu/nu CD1 mouse xenografted with U87MG tumor at 3 mg/kg, po administered as single dose measured upto 16 hrs. Type of data set: ADME, organism-based. On the set-up: dose 3 mg/kg, route oral. The conditions noted are these: tumor and plasma.
For data set [27], the target named is T1, Phosphatidylinositol 4,5-bisphosphate 3-kinase catalytic subunit delta isoform (Homo sapiens, UniProt O00329).
T1 sequence (O00329 whole entry): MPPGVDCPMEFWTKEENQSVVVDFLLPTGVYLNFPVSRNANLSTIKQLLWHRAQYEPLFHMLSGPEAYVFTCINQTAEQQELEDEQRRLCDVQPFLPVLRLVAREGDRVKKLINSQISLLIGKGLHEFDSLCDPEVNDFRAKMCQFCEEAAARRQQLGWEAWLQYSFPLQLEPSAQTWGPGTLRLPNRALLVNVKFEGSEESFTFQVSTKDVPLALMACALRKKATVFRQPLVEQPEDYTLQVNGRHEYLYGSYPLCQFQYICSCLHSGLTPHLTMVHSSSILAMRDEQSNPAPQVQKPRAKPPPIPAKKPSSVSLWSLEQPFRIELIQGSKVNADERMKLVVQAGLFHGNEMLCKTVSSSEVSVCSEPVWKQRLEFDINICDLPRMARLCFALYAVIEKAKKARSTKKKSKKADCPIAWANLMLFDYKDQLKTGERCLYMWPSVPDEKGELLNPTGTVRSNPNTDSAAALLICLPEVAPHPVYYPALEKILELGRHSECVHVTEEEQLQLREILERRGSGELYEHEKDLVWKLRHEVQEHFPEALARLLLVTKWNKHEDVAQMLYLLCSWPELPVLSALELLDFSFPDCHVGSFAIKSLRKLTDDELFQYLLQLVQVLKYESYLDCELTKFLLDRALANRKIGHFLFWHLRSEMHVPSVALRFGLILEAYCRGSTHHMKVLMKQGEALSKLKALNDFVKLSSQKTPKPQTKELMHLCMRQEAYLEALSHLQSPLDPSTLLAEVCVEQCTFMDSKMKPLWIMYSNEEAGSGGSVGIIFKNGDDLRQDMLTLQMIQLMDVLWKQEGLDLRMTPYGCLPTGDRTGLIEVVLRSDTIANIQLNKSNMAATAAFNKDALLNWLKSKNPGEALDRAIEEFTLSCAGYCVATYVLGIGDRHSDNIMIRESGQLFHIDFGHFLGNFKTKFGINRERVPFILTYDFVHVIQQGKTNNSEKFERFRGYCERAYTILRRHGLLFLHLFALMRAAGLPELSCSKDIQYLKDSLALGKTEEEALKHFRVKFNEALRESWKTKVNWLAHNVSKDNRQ
Nature of the data set: Inhibition of human N-terminal His-tagged PI3Kdelta expressed in insect Sf9 cells using PI(4,5)P2 as substrate after 20 mins by alphascreen assay in presence of 8 uM ATP.

Values after ≈ are worked out from the molar mass of the structure shown.

Sequence of Phosphatidylinositol 4,5-bisphosphate 3-kinase catalytic subunit alpha isoform (P42336 whole entry, canonical isoform): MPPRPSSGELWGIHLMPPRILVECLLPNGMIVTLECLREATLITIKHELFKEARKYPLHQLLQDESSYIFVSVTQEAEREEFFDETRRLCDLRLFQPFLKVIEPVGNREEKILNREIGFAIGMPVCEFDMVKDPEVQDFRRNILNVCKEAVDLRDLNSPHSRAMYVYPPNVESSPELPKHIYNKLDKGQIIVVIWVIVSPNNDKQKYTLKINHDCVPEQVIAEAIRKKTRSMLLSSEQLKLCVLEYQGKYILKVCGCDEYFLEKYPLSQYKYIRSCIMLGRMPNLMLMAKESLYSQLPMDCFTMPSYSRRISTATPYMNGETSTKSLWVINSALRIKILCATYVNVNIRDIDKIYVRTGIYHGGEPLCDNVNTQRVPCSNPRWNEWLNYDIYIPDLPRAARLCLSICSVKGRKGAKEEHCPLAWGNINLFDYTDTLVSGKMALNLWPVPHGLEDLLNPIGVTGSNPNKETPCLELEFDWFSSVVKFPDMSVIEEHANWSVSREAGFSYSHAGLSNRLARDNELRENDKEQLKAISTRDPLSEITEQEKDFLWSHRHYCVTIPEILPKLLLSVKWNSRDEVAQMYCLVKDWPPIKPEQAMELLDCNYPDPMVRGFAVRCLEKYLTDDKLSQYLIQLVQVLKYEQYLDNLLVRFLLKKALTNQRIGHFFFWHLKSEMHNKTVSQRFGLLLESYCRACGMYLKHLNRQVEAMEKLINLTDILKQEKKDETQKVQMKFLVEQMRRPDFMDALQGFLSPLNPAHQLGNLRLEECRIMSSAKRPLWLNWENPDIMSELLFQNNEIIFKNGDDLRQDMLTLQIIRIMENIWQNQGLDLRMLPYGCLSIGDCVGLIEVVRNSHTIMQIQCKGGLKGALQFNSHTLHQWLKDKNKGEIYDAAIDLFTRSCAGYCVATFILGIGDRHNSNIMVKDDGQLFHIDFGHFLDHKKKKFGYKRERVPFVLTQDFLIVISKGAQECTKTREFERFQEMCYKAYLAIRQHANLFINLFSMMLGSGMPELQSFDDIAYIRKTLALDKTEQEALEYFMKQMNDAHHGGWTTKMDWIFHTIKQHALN
Sequence of Phosphatidylinositol 4,5-bisphosphate 3-kinase catalytic subunit beta isoform (P42338 whole entry, canonical isoform): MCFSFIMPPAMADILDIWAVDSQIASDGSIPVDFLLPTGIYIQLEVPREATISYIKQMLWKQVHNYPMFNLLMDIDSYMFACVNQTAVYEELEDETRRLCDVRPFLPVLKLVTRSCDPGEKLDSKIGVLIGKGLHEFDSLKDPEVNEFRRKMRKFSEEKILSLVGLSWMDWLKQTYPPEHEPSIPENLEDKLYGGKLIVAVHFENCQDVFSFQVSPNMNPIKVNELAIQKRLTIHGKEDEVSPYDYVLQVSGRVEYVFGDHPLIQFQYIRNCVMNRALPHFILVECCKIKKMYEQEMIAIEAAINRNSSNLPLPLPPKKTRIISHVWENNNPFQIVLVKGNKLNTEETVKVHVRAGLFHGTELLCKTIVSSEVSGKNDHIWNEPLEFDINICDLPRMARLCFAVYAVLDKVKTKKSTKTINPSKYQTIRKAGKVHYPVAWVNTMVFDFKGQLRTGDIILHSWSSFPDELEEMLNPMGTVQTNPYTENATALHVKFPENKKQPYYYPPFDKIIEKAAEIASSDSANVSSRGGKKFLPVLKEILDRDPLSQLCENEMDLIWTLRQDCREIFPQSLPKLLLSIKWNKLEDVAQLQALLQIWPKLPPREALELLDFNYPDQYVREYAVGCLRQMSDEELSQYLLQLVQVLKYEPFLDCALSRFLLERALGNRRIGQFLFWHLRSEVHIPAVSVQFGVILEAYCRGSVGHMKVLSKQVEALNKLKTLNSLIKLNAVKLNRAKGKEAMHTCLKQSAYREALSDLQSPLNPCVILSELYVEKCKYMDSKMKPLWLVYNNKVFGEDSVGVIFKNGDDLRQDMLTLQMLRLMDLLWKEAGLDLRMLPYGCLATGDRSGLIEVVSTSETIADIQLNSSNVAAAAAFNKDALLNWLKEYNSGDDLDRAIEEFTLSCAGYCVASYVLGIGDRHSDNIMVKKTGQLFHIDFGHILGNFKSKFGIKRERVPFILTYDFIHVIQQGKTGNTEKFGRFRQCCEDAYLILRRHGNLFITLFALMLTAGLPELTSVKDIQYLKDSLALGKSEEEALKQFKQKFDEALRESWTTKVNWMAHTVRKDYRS
Sequence of Phosphatidylinositol 4,5-bisphosphate 3-kinase catalytic subunit gamma isoform (P48736 whole entry, canonical isoform): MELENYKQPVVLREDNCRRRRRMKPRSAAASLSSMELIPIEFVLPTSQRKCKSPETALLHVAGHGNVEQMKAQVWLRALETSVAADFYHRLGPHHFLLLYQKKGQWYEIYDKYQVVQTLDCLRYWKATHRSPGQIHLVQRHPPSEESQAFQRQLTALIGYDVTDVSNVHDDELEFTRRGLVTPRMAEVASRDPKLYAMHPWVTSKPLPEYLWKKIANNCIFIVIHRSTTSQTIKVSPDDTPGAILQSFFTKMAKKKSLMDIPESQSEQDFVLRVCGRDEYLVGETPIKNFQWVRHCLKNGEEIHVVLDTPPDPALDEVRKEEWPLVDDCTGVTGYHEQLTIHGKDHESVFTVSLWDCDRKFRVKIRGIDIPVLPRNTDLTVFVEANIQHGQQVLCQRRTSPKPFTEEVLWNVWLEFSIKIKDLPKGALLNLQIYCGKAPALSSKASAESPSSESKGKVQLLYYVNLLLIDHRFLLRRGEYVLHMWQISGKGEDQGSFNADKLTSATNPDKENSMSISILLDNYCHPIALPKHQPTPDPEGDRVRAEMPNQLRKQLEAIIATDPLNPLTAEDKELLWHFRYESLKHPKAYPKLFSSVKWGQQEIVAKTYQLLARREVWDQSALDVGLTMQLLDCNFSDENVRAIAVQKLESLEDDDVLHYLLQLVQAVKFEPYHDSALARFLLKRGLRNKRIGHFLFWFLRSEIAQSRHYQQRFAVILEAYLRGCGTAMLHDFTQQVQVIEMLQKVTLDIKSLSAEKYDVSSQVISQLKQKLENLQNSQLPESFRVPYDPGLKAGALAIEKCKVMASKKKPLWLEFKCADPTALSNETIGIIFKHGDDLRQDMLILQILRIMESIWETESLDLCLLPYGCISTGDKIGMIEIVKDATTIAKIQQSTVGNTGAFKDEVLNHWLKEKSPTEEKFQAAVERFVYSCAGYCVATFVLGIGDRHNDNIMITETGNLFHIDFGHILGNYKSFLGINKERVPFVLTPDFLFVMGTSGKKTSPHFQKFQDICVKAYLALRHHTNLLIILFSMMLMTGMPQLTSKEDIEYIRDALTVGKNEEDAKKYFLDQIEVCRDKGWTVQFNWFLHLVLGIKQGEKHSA

As for `CC(=O)Nc1nc2ccc(-c3cnc(Cl)c(NS(=O)(=O)c4ccc(F)cc4)c3)cc2s1`, the QH in [1], in data set [2] and in data set [6] was 0.2% throughout. The microsomal CLint in data set [3], in data set [4], in data set [5], in data set [7] and in data set [8] was less than 26 µL/min/mg throughout.
With `Nc1nc2ccc(-c3cnc(Cl)c(NS(=O)(=O)c4ccc(F)cc4)c3)cc2s1`, in data set [9], the IC50 came out at 24 nM.
On to `O=S(=O)(Nc1cc(-c2ccc3ncsc3c2)cnc1Cl)c1ccc(F)cc1`, for which the IC50 in data set [9] was 33 nM.
For the compound `CC(=O)Nc1cn2nc(-c3cnc(Cl)c(NS(=O)(=O)c4ccc(F)cc4)c3)ccc2n1`, the ED50 in data set [10] came to 0.7 mg/kg. Moreover, the inhibition in vivo at 1 mg/kg in data set [11] was 49%. Further, the Ki in [12] was 3.5 nM; in [16], 1.4 nM; in [19] it was 1.9 nM; in data set [27] it was 0.8 nM. In addition, the half-life in [13] was 7 h. This compound displayed an AUC(0-t) at 24 h in data set [14] of 9200 ng·h/mL. In addition, the bioavailability in data set [15] worked out at 46%. Moreover, the AUC in data set [17] stood at 11500 ng·h/mL. Further, the Kp at 8 h in [18] came to 0.13. For the same compound, in data set [20], the clearance is 0.667 mL/min/kg. Also, the Vd in data set [21] is 0.27 L/kg. The figures for the EC50 in data set [22] and in data set [24] were 0.232 µg/mL (≈ 0.503 µM) and 500 nM, respectively. The IC50 in data set [9] is 0.4 nM. For the same compound, in data set [23], the Activity is less than 5%. Further, the QH in [25] stood at 1.2%. For the same compound, the Kp at 16 h in [26] was 0.27.
For `Nc1cn2nc(-c3cnc(Cl)c(NS(=O)(=O)c4ccc(F)cc4)c3)ccc2n1`, in data set [16], the Ki was determined as 11 nM. Also, the IC50 in data set [9] is 35 nM.
Regarding `O=S(=O)(Nc1cc(-c2ccc3nccn3n2)cnc1Cl)c1ccc(F)cc1`, the inhibitory constant (Ki) in data set [16] amounted to 6.1 nM. The IC50 in data set [9] is 49 nM.
The corresponding values for `CC(=O)Nc1cn2cc(-c3cnc(Cl)c(NS(=O)(=O)c4ccc(F)cc4)c3)ccc2n1` are 1.2 nM and 6.6 nM.
As to `Nc1cn2cc(-c3cnc(Cl)c(NS(=O)(=O)c4ccc(F)cc4)c3)ccc2n1`, the Ki in [16] is 2.8 nM. Further, in data set [9], the IC50 amounted to 20 nM.
Regarding `O=S(=O)(Nc1cc(-c2ccc3nccn3c2)cnc1Cl)c1ccc(F)cc1`, the Ki in data set [16] worked out at 23 nM. Further, in data set [9], the half-inhibitory concentration (IC50) amounted to 229 nM.
As for `CC(=O)Nc1nc2ccc(-c3cnc(Cl)c(NS(=O)(=O)c4ccc(F)cc4)c3)cc2[nH]1`, the Ki in data set [16] turned out to be 3.3 nM. Also, the IC50 in data set [9] was 20 nM.
Consider `Nc1nc2ccc(-c3cnc(Cl)c(NS(=O)(=O)c4ccc(F)cc4)c3)cc2[nH]1`, for which the Ki in [16] worked out at 119 nM. Moreover, the IC50 in data set [9] came out at 430 nM.
Consider `O=S(=O)(Nc1cc(-c2ccc3nc[nH]c3c2)cnc1Cl)c1ccc(F)cc1`, for which, in [16], the Ki is 68 nM. Besides, the IC50 in [9] was found to be 446 nM.
`CC(=O)Nc1nc2ccc(-c3cnc(Cl)c(NS(=O)(=O)c4ccc(F)cc4)c3)cc2o1`: the Ki in data set [16] was found to be 47 nM. In addition, in data set [9], the IC50 is 146 nM.
The corresponding values for `Nc1nc2ccc(-c3cnc(Cl)c(NS(=O)(=O)c4ccc(F)cc4)c3)cc2o1` are 7.2 nM and 70 nM.
Consider `O=S(=O)(Nc1cc(-c2ccc3ncoc3c2)cnc1Cl)c1ccc(F)cc1`, for which the Ki in data set [16] was found to be 26 nM. Besides, in [9], the IC50 was 76 nM.
For the compound `O=S(=O)(Nc1cc(-c2ccc3nncn3c2)cnc1Cl)c1ccc(F)cc1`, in data set [16], the Ki was determined as 51 nM. In [9], the IC50 is greater than 25000 nM.
As for `O=S(=O)(Nc1cc(-c2ccc3sncc3c2)cnc1Cl)c1ccc(F)cc1`, the Ki in [16] was 76 nM. For the same compound, the concentration for half-maximal inhibition (IC50) in [9] came out at 292 nM.

For orientation: microsomal CLint means a measure of how fast metabolising enzymes remove a compound, apart from limits set by blood flow. One may read the IC50 as the point on the concentration scale where inhibition reaches its midpoint. The ED50 is the midpoint of the dose-response relation. Broadly, the Ki is the equilibrium dissociation constant of an inhibitor or competing ligand from its target. As a reminder, the AUC(0-t) is the area under the concentration-time curve up to a stated or last time point. For orientation: bioavailability means the share of a dose that reaches the circulation, judged against a reference dose that is usually intravenous. As a reminder, the AUC is the area under the concentration-time curve, a measure of exposure. The Kp is tissue or fluid exposure divided by exposure in the circulation. A word on the clearance: it is a measure of how efficiently the substance is removed, as volume per time. By Vd is commonly meant a proportionality between amount in the body and measured concentration, not a real space. As a reminder, the EC50 is the concentration giving half of the maximal effect.
